Measurements reported in patent US12304933B2, “Disease treatment drug based on mesenchymal-stem-cell mobilization” (StemRIM Inc., priority 2018, dated 2025).

Assays:
psoriasis model mice = assay: Auricular thickness in imiquimod-induced psoriasis model mice; assay type: in vivo, C57BL/6 mice; settings: 5% imiquimod cream on auricular skin once a day for seven days; 5 mg/kg/day peptide into tail vein for seven days; n=4; FIG. 9
Procedure: To induce psoriasis by imiquimod, a cream containing 5% imiquimod (Beseruna cream 5%, Mochida Pharmaceutical Co., Ltd.) was used. In the drawing corresponding to the Example of the present application, imiquimod is referred to as IMQ. In addition, the peptide NP-3 (TFA salt) described in Example 1 was used as a test substance.
C57BL/6 mice (7 weeks old, female, body weight about 20 g) were prepared. To induce psoriasis, a cream containing 5% imiquimod was applied on the auricular skin of the mice at an amount of 25 mg/ear/day (1.25 mg/ear/day imiquimod) once a day for seven days. Moreover, mice without imiquimod application (hereinafter, referred to as “normal mice”) were used as a comparison target.
The psoriasis model mice prepared as described above were divided into a peptide-administered group (n=4) and a control group (n=4). […]
During the test period, the auricle thickness of mice was measured daily using a micrometer (manufactured by Mitutoyo Co., Ltd., Product No. CLM1-15QM), and the size of change from the auricle thickness before the start of imiquimod application (Day 0) was calculated. The degree of skin thickening was evaluated using the size of change as an index.

[1] = system: mesenchymal stem cells in peripheral blood; assay: Solid-phase culture of peripheral blood after administration of HMGB1 peptide 1-44 (earlier experiments of the inventors); assay type: in vivo
Text: In addition, the colonies obtained as a result of culturing, on a solid phase, peripheral blood after administration of a peptide consisting of amino acid residues 1-44 of the human HMGB1 protein (hereinafter, HMGB1 peptide 1-44), which has an activity of mobilizing mesenchymal stem cells into peripheral blood, have been confirmed to have adherability to solid phase and self-renewal ability, and to be PDGFRα positive. They have also been confirmed to have a gene expression profile characteristic to mesenchymal stem cells, based on the results of clustering the transcriptome analysis data and performing gene ontology analysis.
Furthermore, it has been confirmed that the number of colonies obtained by solid-phase culture is larger in the peripheral blood after administration of HMGB1 peptide 1-44 than in the peripheral blood after administration of physiological saline.

NP-3: Chemically synthesized fragment peptide of mouse YBX1 protein, positions 174-203, SEQ ID NO: 37 (SAPEGQAQQRRPYRRRRFPPYYMRRPYARR; listed as Mus musculus)
increase in auricular thickness as compared with the control group (psoriasis model mice): suppressed

HMGB1 peptide 1-44: peptide consisting of amino acid residues 1-44 of the human HMGB1 protein, which has an activity of mobilizing mesenchymal stem cells into peripheral blood (MGKGDPKKPRGKMSSYAFFVQTCREEHKKKHPDASVNFSEFSKK; UniProt P09429 1-44, looked up, fragment)
number of colonies obtained by solid-phase culture of peripheral blood, compared with peripheral blood after administration of physiological saline [1]: larger
